The kinase profiling compilation of Christmann-Franck et al. (2016)

Target: INSRR (human) (UniProt P14616)
Assay: radiometric filter-binding kinase assay
Settings: compound 100.0 µM; ATP 5 µM

In order of falling inhibition:
1. O=c1cc(-c2ccccc2F)nc2[nH]ccn12  6%
2. CC(=O)Nc1nc2cnc(-c3c(C)cccc3C)cn2n1  0%
3. CC(C)(C)Nc1c(C2CC2)nc2[nH]cnn12  0%

Target: TBK1 (human) (UniProt Q9UHD2)
Assay: radiometric filter-binding kinase assay
Settings: compound 100.0 µM; ATP 50 µM

In order of falling inhibition:
1. CC(=O)Nc1nc2cnc(-c3c(C)cccc3C)cn2n1  15%
2. O=c1cc(-c2ccccc2F)nc2[nH]ccn12  6%
3. CC(C)(C)Nc1c(C2CC2)nc2[nH]cnn12  1%

Target: MAP3K1 (human) (UniProt Q13233)
Assay: radiometric filter-binding kinase assay
Settings: compound 100.0 µM; ATP 50 µM

MAP3K1 (human), sequence (Q13233 whole entry, looked up): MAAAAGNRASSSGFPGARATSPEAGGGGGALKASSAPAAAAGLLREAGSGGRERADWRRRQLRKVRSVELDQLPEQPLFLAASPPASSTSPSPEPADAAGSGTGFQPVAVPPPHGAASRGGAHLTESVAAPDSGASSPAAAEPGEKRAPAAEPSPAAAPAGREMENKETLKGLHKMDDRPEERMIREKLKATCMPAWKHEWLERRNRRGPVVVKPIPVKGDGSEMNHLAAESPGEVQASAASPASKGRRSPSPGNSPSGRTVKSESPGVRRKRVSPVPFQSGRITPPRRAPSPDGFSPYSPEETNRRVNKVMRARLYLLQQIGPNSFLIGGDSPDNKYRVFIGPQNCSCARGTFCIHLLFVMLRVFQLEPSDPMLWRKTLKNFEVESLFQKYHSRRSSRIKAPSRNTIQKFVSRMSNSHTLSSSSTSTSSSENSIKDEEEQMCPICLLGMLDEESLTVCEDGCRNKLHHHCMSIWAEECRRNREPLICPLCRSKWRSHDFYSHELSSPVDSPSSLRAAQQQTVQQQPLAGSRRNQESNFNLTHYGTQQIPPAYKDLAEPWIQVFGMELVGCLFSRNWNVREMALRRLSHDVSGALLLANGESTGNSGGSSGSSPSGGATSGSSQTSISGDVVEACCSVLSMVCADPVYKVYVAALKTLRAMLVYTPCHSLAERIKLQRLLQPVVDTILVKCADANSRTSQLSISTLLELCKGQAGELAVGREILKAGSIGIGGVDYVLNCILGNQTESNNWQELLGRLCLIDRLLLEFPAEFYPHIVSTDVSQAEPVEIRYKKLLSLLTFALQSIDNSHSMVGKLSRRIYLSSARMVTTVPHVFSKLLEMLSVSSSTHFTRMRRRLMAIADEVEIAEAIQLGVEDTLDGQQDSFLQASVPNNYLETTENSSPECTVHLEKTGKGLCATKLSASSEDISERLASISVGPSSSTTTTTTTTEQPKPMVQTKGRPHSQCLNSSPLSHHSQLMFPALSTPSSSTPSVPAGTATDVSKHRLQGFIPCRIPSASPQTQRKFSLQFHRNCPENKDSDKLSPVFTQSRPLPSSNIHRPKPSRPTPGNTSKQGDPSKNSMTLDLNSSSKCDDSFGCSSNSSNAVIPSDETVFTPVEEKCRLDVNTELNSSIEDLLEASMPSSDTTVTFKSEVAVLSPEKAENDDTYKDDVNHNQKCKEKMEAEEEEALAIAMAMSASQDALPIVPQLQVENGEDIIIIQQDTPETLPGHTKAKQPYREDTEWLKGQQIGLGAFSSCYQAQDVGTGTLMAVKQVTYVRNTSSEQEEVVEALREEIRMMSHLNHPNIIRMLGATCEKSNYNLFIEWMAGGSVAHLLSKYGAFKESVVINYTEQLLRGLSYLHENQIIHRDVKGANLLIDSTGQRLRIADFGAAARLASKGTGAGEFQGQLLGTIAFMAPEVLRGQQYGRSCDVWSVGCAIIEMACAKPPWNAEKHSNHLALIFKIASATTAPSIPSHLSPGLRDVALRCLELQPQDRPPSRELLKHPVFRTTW

In order of rising inhibition:
1. CC(=O)Nc1nc2cnc(-c3c(C)cccc3C)cn2n1  0%
2. CC(C)(C)Nc1c(C2CC2)nc2[nH]cnn12  0%
3. O=c1cc(-c2ccccc2F)nc2[nH]ccn12  53%

Target: TEK (human) (UniProt Q02763)
Assay: radiometric filter-binding kinase assay
Settings: compound 100.0 µM; ATP 20 µM

TEK (human), sequence (Q02763 whole entry, looked up): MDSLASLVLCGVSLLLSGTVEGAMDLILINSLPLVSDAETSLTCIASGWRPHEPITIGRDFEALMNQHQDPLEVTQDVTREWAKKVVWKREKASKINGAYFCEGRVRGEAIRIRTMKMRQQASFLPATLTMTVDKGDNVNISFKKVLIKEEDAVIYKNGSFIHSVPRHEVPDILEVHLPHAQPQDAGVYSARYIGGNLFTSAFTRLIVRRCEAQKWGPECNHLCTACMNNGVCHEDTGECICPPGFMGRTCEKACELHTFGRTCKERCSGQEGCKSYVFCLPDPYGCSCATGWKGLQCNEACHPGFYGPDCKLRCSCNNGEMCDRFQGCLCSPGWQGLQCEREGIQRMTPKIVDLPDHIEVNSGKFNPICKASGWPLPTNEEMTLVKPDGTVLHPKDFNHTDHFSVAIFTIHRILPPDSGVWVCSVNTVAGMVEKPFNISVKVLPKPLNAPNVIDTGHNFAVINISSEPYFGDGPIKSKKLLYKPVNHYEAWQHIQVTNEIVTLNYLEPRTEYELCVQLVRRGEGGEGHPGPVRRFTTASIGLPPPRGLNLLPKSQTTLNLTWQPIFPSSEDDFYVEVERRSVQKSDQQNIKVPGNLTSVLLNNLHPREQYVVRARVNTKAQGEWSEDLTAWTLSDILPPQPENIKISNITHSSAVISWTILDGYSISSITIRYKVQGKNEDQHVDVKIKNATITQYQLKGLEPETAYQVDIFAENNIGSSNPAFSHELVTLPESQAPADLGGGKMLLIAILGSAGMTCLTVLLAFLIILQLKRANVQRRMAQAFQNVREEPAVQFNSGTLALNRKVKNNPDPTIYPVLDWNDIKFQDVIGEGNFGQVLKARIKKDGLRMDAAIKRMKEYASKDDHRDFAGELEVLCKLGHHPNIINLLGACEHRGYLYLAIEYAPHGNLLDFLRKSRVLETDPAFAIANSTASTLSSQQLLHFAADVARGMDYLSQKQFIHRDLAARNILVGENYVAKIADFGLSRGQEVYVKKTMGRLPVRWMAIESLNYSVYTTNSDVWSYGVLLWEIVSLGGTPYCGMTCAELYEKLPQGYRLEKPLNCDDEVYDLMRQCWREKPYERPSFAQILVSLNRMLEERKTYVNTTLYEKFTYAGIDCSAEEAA

In order of falling inhibition:
1. CC(C)(C)Nc1c(C2CC2)nc2[nH]cnn12  9%
2. CC(=O)Nc1nc2cnc(-c3c(C)cccc3C)cn2n1  0%
3. O=c1cc(-c2ccccc2F)nc2[nH]ccn12  0%

Target: CHEK2 (human) (UniProt O96017)
Assay: radiometric filter-binding kinase assay
Settings: compound 100.0 µM; ATP 20 µM

CHEK2 (human), sequence (O96017 whole entry, looked up): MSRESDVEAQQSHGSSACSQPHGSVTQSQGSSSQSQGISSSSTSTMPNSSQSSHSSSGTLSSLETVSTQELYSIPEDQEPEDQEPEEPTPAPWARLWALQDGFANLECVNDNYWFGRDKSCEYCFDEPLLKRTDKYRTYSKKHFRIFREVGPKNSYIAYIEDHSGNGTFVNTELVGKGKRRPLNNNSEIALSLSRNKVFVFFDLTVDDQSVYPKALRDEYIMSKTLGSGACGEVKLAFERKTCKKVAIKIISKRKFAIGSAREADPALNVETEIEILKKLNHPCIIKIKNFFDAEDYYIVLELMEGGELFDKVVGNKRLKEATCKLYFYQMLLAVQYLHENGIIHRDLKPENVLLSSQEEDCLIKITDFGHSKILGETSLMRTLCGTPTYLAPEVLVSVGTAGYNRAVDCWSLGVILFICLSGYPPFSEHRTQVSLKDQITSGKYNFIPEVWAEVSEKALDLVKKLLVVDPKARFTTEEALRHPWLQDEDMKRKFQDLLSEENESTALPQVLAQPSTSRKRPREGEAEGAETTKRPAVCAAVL

In order of falling inhibition:
1. O=c1cc(-c2ccccc2F)nc2[nH]ccn12  19%
2. CC(=O)Nc1nc2cnc(-c3c(C)cccc3C)cn2n1  0%
3. CC(C)(C)Nc1c(C2CC2)nc2[nH]cnn12  0%

Tested on: LCK (mouse)
Assay: radiometric filter-binding kinase assay
Settings: compound 100.0 µM; ATP 50 µM; accession and sequence are those of the human protein

In order of falling inhibition:
1. O=c1cc(-c2ccccc2F)nc2[nH]ccn12  23%
2. CC(=O)Nc1nc2cnc(-c3c(C)cccc3C)cn2n1  0%
3. CC(C)(C)Nc1c(C2CC2)nc2[nH]cnn12  0%

Target: PDPK1 (human) (UniProt O15530)
Assay: radiometric filter-binding kinase assay
Settings: compound 100.0 µM; ATP 20 µM

In order of falling inhibition:
1. CC(C)(C)Nc1c(C2CC2)nc2[nH]cnn12  3%
2. O=c1cc(-c2ccccc2F)nc2[nH]ccn12  2%
3. CC(=O)Nc1nc2cnc(-c3c(C)cccc3C)cn2n1  0%

Same assay, conditions: compound 100.0 µM; ATP 50 µM

In order of falling inhibition:
1. O=c1cc(-c2ccccc2F)nc2[nH]ccn12  15%
2. CC(C)(C)Nc1c(C2CC2)nc2[nH]cnn12  11%
3. CC(=O)Nc1nc2cnc(-c3c(C)cccc3C)cn2n1  0%

Target: SRC (human) (UniProt P12931)
Assay: radiometric filter-binding kinase assay
Settings: compound 100.0 µM; ATP 50 µM

In order of falling inhibition:
1. O=c1cc(-c2ccccc2F)nc2[nH]ccn12  11%
2. CC(=O)Nc1nc2cnc(-c3c(C)cccc3C)cn2n1  0%
3. CC(C)(C)Nc1c(C2CC2)nc2[nH]cnn12  0%

Target: SYK (human) (UniProt P43405)
Assay: radiometric filter-binding kinase assay
Settings: compound 100.0 µM; ATP 20 µM

In order of falling inhibition:
1. O=c1cc(-c2ccccc2F)nc2[nH]ccn12  20%
2. CC(=O)Nc1nc2cnc(-c3c(C)cccc3C)cn2n1  10%
3. CC(C)(C)Nc1c(C2CC2)nc2[nH]cnn12  7%

Target: MINK1 (human) (UniProt Q8N4C8)
Assay: radiometric filter-binding kinase assay
Settings: compound 100.0 µM; ATP 50 µM

In order of rising inhibition:
1. CC(=O)Nc1nc2cnc(-c3c(C)cccc3C)cn2n1  0%
2. CC(C)(C)Nc1c(C2CC2)nc2[nH]cnn12  0%
3. O=c1cc(-c2ccccc2F)nc2[nH]ccn12  28%

Target: STK11 CAB39 STRADA (human) (UniProt Q9Y376+Q7RTN6+Q15831)
Assay: radiometric filter-binding kinase assay
Settings: compound 100.0 µM; ATP 20 µM

In order of rising inhibition:
1. CC(=O)Nc1nc2cnc(-c3c(C)cccc3C)cn2n1  0%
2. CC(C)(C)Nc1c(C2CC2)nc2[nH]cnn12  0%
3. O=c1cc(-c2ccccc2F)nc2[nH]ccn12  6%

Target: PKN2 (human) (UniProt Q16513)
Assay: radiometric filter-binding kinase assay
Settings: compound 100.0 µM; ATP 5 µM

PKN2 (human), sequence (Q16513 whole entry, looked up): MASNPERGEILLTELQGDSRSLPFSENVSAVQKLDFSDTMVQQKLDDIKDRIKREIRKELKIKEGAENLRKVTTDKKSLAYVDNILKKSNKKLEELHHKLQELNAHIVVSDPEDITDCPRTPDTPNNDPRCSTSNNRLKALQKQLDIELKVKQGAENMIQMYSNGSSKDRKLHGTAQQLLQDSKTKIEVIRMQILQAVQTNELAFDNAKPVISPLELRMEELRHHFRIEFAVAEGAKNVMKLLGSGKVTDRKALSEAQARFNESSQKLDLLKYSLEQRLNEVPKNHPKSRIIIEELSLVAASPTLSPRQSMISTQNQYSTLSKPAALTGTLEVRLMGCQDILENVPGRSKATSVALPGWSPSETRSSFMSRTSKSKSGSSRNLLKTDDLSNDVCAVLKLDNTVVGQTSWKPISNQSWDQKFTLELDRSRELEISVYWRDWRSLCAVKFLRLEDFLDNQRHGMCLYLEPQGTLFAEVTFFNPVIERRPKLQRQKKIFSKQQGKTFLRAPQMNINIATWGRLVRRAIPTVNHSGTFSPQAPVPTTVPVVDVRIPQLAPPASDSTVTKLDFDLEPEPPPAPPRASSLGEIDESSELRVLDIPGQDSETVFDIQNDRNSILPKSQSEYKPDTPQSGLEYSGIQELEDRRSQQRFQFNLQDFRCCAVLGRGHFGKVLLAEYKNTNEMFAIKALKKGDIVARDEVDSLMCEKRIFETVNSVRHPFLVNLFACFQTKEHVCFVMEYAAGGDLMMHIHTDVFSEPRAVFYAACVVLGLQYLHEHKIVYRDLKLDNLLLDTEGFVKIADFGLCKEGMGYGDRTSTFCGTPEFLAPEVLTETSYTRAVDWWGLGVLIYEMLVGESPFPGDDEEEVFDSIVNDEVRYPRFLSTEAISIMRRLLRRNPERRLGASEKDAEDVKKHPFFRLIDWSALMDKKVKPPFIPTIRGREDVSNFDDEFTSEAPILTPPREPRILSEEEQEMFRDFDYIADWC

In order of falling inhibition:
1. CC(C)(C)Nc1c(C2CC2)nc2[nH]cnn12  17%
2. O=c1cc(-c2ccccc2F)nc2[nH]ccn12  2%
3. CC(=O)Nc1nc2cnc(-c3c(C)cccc3C)cn2n1  0%

Target: DYRK3 (human) (UniProt O43781)
Assay: radiometric filter-binding kinase assay
Settings: compound 100.0 µM; ATP 5 µM

In order of rising inhibition:
1. CC(C)(C)Nc1c(C2CC2)nc2[nH]cnn12  7%
2. CC(=O)Nc1nc2cnc(-c3c(C)cccc3C)cn2n1  12%
3. O=c1cc(-c2ccccc2F)nc2[nH]ccn12  30%

Target: CaMK1 (human) (UniProt Q14012)
Assay: radiometric filter-binding kinase assay
Settings: compound 100.0 µM; ATP 50 µM

In order of rising inhibition:
1. O=c1cc(-c2ccccc2F)nc2[nH]ccn12  9%
2. CC(C)(C)Nc1c(C2CC2)nc2[nH]cnn12  22%
3. CC(=O)Nc1nc2cnc(-c3c(C)cccc3C)cn2n1  35%

Target: EPHB1 (human) (UniProt P54762)
Assay: radiometric filter-binding kinase assay
Settings: compound 100.0 µM; ATP 20 µM

In order of rising inhibition:
1. CC(=O)Nc1nc2cnc(-c3c(C)cccc3C)cn2n1  0%
2. CC(C)(C)Nc1c(C2CC2)nc2[nH]cnn12  0%
3. O=c1cc(-c2ccccc2F)nc2[nH]ccn12  20%

Target: CAMKK2 (human) (UniProt Q96RR4)
Assay: radiometric filter-binding kinase assay
Settings: compound 100.0 µM; ATP 20 µM

CAMKK2 (human), sequence (Q96RR4 whole entry, looked up): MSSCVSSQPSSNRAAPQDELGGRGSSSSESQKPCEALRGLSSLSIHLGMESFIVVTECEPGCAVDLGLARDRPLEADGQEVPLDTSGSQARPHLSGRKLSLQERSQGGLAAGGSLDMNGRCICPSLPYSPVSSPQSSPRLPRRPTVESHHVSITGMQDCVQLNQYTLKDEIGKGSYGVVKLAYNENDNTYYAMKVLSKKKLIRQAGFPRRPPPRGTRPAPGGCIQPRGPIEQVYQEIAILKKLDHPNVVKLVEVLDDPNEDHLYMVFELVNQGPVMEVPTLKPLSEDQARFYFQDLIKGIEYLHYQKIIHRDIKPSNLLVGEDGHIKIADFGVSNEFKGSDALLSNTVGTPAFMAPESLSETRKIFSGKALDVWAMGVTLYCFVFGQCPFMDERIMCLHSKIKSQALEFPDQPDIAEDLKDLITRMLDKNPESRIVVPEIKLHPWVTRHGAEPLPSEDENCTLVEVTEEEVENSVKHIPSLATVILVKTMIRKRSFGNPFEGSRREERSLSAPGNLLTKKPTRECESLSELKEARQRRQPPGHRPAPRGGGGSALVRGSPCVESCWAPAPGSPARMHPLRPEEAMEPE

In order of falling inhibition:
1. CC(C)(C)Nc1c(C2CC2)nc2[nH]cnn12  34%
2. CC(=O)Nc1nc2cnc(-c3c(C)cccc3C)cn2n1  18%
3. O=c1cc(-c2ccccc2F)nc2[nH]ccn12  0%

Target: ABL1 (human) (UniProt P00519)
Assay: radiometric filter-binding kinase assay
Settings: compound 100.0 µM; ATP 5 µM

In order of falling inhibition:
1. CC(=O)Nc1nc2cnc(-c3c(C)cccc3C)cn2n1  18%
2. O=c1cc(-c2ccccc2F)nc2[nH]ccn12  3%
3. CC(C)(C)Nc1c(C2CC2)nc2[nH]cnn12  0%

Target: STK33 (human) (UniProt Q9BYT3)
Assay: radiometric filter-binding kinase assay
Settings: compound 100.0 µM; ATP 50 µM

In the case of `CC(=O)Nc1nc2cnc(-c3c(C)cccc3C)cn2n1`, the inhibition is reported as 0%.
